The assay has as its target CDK2/Cyclin E1 full length (Homo sapiens (Human), UniProt P24941). The assay is described as follows: CDK2/Cyclin E1 full length mobility shift assay. Format: biochemical.

Usually Ki stands for a dissociation constant, usually derived from enzyme kinetics or from competition with a known ligand.

`Cc1cnc(CC(=O)Nc2cc([C@H]3CC[C@@H](OC(=O)N(C)C(C)C)C3)[nH]n2)o1` [Example 290, (1R,3S)-3-(3-{[(5-methyl-1,3-oxazol-2-yl)acetyl]amino}-1H-pyrazol-5-yl)cyclopentyl methyl(propan-2-yl)carbamate]: the inhibition constant (Ki) was 1.45 nM.

`Cc1coc(CC(=O)Nc2cc([C@H]3CC[C@@H](OC(=O)NC(C)(C)C)C3)[nH]n2)n1` [Example 296, (1R,3S)-3-(3-{[(4-methyl-1,3-oxazol-2-yl)acetyl]amino}-1H-pyrazol-5-yl)cyclopentyl tert-butylcarbamate]: the Ki amounted to 0.3 nM.

Regarding `Cc1cn(CC(=O)Nc2cc([C@H]3CC[C@@H](OC(=O)NC(C)(C)C)C3)[nH]n2)nn1` [Example 297, (1R,3S)-3-(3-{[(4-methyl-1H-1,2,3-triazol-1-yl)acetyl]amino}-1H-pyrazol-5-yl)cyclopentyl tert-butylcarbamate], the Ki is 1.17 nM.

Turning to `CC(C)(C)NC(=O)O[C@@H]1CC[C@H](c2cc(NC(=O)Cc3ccc(F)cn3)n[nH]2)C1` [Example 300, (1R,3S)-3-(3-{[(5-fluoropyridin-2-yl)acetyl]amino}-1H-pyrazol-5-yl)cyclopentyl tert-butylcarbamate], the Ki turned out to be 0.65 nM.

As to `CC(C)(C)NC(=O)O[C@@H]1CC[C@H](c2cc(NC(=O)Cc3ncccc3F)n[nH]2)C1` [Example 301, (1R,3S)-3-(3-{[(3-fluoropyridin-2-yl)acetyl]amino}-1H-pyrazol-5-yl)cyclopentyl tert-butylcarbamate], the inhibition constant (Ki) is 0.55 nM.

As to `COc1cc(C(=O)Nc2cc([C@H]3CC[C@@H](OC(=O)NC(C)(C)C)C3)[nH]n2)n(C)n1` [Example 302, (1R,3S)-3-(3-{[(3-methoxy-1-methyl-1H-pyrazol-5-yl)carbonyl]amino}-1H-pyrazol-5-yl)cyclopentyl tert-butylcarbamate], the Ki worked out at 0.5 nM.

With `Cc1cnc(CC(=O)Nc2cc([C@H]3CC[C@@H](OC(=O)NC(C)(C)C)C3)[nH]n2)s1` [Example 303, (1R,3S)-3-(3-{[(5-methyl-1,3-thiazol-2-yl)acetyl]amino}-1H-pyrazol-5-yl)cyclopentyl tert-butylcarbamate], the Ki came out at 0.33 nM.

On to `Cc1nc(CC(=O)Nc2cc([C@H]3CC[C@@H](OC(=O)NC(C)(C)C)C3)[nH]n2)cs1` [Example 304, (1R,3S)-3-(3-{[(2-methyl-1,3-thiazol-4-yl)acetyl]amino}-1H-pyrazol-5-yl)cyclopentyl tert-butylcarbamate], for which the Ki worked out at 1.41 nM.

As for `Cc1nnc(CC(=O)Nc2cc([C@H]3CC[C@@H](OC(=O)NC(C)(C)C)C3)[nH]n2)s1` [Example 305, (1R,3S)-3-(3-{[(5-methyl-1,3,4-thiadiazol-2-yl)acetyl]amino}-1H-pyrazol-5-yl)cyclopentyl tert-butylcarbamate], the Ki is 0.52 nM.

As to `CC(C)(C)NC(=O)O[C@@H]1CC[C@H](c2cc(NC(=O)Cc3coc(C4CC4)n3)n[nH]2)C1` [Example 306, (1R,3S)-3-(3-{[(2-cyclopropyl-1,3-oxazol-4-yl)acetyl]amino}-1H-pyrazol-5-yl)cyclopentyl tert-butylcarbamate], the Ki worked out at 1.09 nM.

For `COc1ncccc1CC(=O)Nc1cc([C@H]2CC[C@@H](OC(=O)NC(C)(C)C)C2)[nH]n1` [Example 307, (1R,3S)-3-(3-{[(2-methoxypyridin-3-yl)acetyl]amino}-1H-pyrazol-5-yl)cyclopentyl tert-butylcarbamate], the inhibitory constant (Ki) was found to be 0.73 nM.

`COc1nn(C)cc1CC(=O)Nc1cc([C@H]2CC[C@@H](OC(=O)NC(C)(C)C)C2)[nH]n1` [Example 309, (1R,3S)-3-(3-{[(3-methoxy-1-methyl-1H-pyrazol-4-yl)acetyl]amino}-1H-pyrazol-5-yl)cyclopentyl tert-butylcarbamate]: the Ki worked out at 1.55 nM.

On to `CC(C)(C)NC(=O)O[C@@H]1CC[C@H](c2cc(NC(=O)Cc3ccc(Cl)cn3)n[nH]2)C1` [Example 310, (1R,3S)-3-(3-{[(5-chloropyridin-2-yl)acetyl]amino}-1H-pyrazol-5-yl)cyclopentyl tert-butylcarbamate], for which the Ki came out at 0.69 nM.

Turning to `COc1cnc(CC(=O)Nc2cc([C@H]3CC[C@@H](OC(=O)NC(C)(C)C)C3)[nH]n2)s1` [Example 311, (1R,3S)-3-(3-{[(5-methoxy-1,3-thiazol-2-yl)acetyl]amino}-1H-pyrazol-5-yl)cyclopentyl tert-butylcarbamate], the Ki came to 0.36 nM.

Turning to `Cc1nc(CC(=O)Nc2cc([C@H]3CC[C@@H](OC(=O)NC(C)(C)C)C3)[nH]n2)ccc1Cl` [Example 312, (1R,3S)-3-(3-{[(5-chloro-6-methylpyridin-2-yl)acetyl]amino}-1H-pyrazol-5-yl)cyclopentyl tert-butylcarbamate], the Ki was found to be 0.43 nM.

Take `Cc1ccnc(CC(=O)Nc2cc([C@H]3CC[C@@H](OC(=O)NC(C)(C)C)C3)[nH]n2)c1Cl` [Example 313, (1R,3S)-3-(3-{[(3-chloro-4-methylpyridin-2-yl)acetyl]amino}-1H-pyrazol-5-yl)cyclopentyl tert-butylcarbamate]: the Ki is 0.63 nM.

For `CC(C)(C)NC(=O)O[C@@H]1CC[C@H](c2cc(NC(=O)Cc3cc(C(F)(F)F)ccn3)n[nH]2)C1` [Example 316, (1R,3S)-3-[3-({[4-(trifluoromethyl)pyridin-2-yl]acetyl}amino)-1H-pyrazol-5-yl]cyclopentyl tert-butylcarbamate], the Ki was 1.3 nM.

As for `CC(C)(C)NC(=O)O[C@@H]1CC[C@H](c2cc(NC(=O)Cc3cnn(CC(F)(F)F)n3)n[nH]2)C1` [Example 318, (1R,3S)-3-[3-({[2-(2,2,2-trifluoroethyl)-2H-1,2,3-triazol-4-yl]acetyl}amino)-1H-pyrazol-5-yl]cyclopentyl tert-butylcarbamate], the Ki was 0.53 nM.

Take `CC[C@H](C)NC(=O)O[C@@H]1CC[C@H](c2cc(NC(=O)c3cnn(C)c3)n[nH]2)C1` [Example 320, (1R,3S)-3-(3-{[(1-methyl-1H-pyrazol-4-yl)carbonyl]amino}-1H-pyrazol-5-yl)cyclopentyl (2S)-butan-2-ylcarbamate]: the Ki is 2.95 nM.

For the compound `CC[C@H](C)NC(=O)O[C@@H]1CC[C@H](c2cc(NC(=O)Cc3ccn(C)n3)n[nH]2)C1` [Example 328, (1R,3S)-3-(3-{[(1-methyl-1H-pyrazol-3-yl)acetyl]amino}-1H-pyrazol-5-yl)cyclopentyl (2S)-butan-2-ylcarbamate], the Ki stood at 1.77 nM.

For `CC[C@H](C)NC(=O)O[C@@H]1CC[C@H](c2cc(NC(=O)Cc3cn(C)nn3)n[nH]2)C1` [Example 331, (1R,3S)-3-(3-{[(1-methyl-1H-1,2,3-triazol-4-yl)acetyl]amino}-1H-pyrazol-5-yl)cyclopentyl (2S)-butan-2-ylcarbamate], the Ki came to 1.49 nM.

For the compound `CC[C@H](C)NC(=O)O[C@@H]1CC[C@H](c2cc(NC(=O)Cc3nnc(C)o3)n[nH]2)C1` [Example 334, (1R,3S)-3-(3-{[(5-methyl-1,3,4-oxadiazol-2-yl)acetyl]amino}-1H-pyrazol-5-yl)cyclopentyl (2S)-butan-2-ylcarbamate], the Ki was 1.6 nM.

As for `CC[C@H](C)NC(=O)O[C@@H]1CC[C@H](c2cc(NC(=O)Cc3cnn(CC)n3)n[nH]2)C1` [Example 339, (1R,3S)-3-(3-{[(2-ethyl-2H-1,2,3-triazol-4-yl)acetyl]amino}-1H-pyrazol-5-yl)cyclopentyl (2S)-butan-2-ylcarbamate], the Ki amounted to 0.66 nM.

For `CC[C@H](C)NC(=O)O[C@@H]1CC[C@H](c2cc(NC(=O)Cc3c(C)noc3C)n[nH]2)C1` [Example 340, (1R,3S)-3-(3-{[(3,5-dimethyl-1,2-oxazol-4-yl)acetyl]amino}-1H-pyrazol-5-yl)cyclopentyl (2S)-butan-2-ylcarbamate], the inhibition constant Ki is 2.24 nM.

`CC[C@H](C)NC(=O)O[C@@H]1CC[C@H](c2cc(NC(=O)Cc3ncc(C)s3)n[nH]2)C1` [Example 341, (1R,3S)-3-(3-{[(5-methyl-1,3-thiazol-2-yl)acetyl]amino}-1H-pyrazol-5-yl)cyclopentyl (2S)-butan-2-ylcarbamate]: the Ki was 0.64 nM.

For `CC[C@H](C)NC(=O)O[C@@H]1CC[C@H](c2cc(NC(=O)Cc3nnc(C)s3)n[nH]2)C1` [Example 344, (1R,3S)-3-(3-{[(5-methyl-1,3,4-thiadiazol-2-yl)acetyl]amino}-1H-pyrazol-5-yl)cyclopentyl (2S)-butan-2-ylcarbamate], the Ki was 0.58 nM.

Regarding `CC[C@H](C)NC(=O)O[C@@H]1CC[C@H](c2cc(NC(=O)Cc3cccnc3OC)n[nH]2)C1` [Example 345, (1R,3S)-3-(3-{[(2-methoxypyridin-3-yl)acetyl]amino}-1H-pyrazol-5-yl)cyclopentyl (2S)-butan-2-ylcarbamate], the Ki came out at 2.66 nM.

As for `CC[C@H](C)NC(=O)O[C@@H]1CC[C@H](c2cc(NC(=O)Cc3cnc(OC)cn3)n[nH]2)C1` [Example 347, (1R,3S)-3-(3-{[(5-methoxypyrazin-2-yl)acetyl]amino}-1H-pyrazol-5-yl)cyclopentyl (2S)-butan-2-ylcarbamate], the Ki worked out at 0.37 nM.

Consider `CC[C@H](C)NC(=O)O[C@@H]1CC[C@H](c2cc(NC(=O)Cc3cn(C(C)C)nn3)n[nH]2)C1` [Example 350, (1R,3S)-3-[3-({[1-(propan-2-yl)-1H-1,2,3-triazol-4-yl]acetyl}amino)-1H-pyrazol-5-yl]cyclopentyl (2S)-butan-2-ylcarbamate], for which the Ki was determined as 3.45 nM.

Take `CC[C@H](C)NC(=O)O[C@@H]1CC[C@H](c2cc(NC(=O)Cc3cn(C)nc3OC)n[nH]2)C1` [Example 351, (1R,3S)-3-(3-{[(3-methoxy-1-methyl-1H-pyrazol-4-yl)acetyl]amino}-1H-pyrazol-5-yl)cyclopentyl (2S)-butan-2-ylcarbamate]: the Ki was 2.77 nM.

With `CC[C@H](C)NC(=O)O[C@@H]1CC[C@H](c2cc(NC(=O)Cc3cn4cccnc4n3)n[nH]2)C1` [Example 354, (1R,3S)-3-{3-[(imidazo[1,2-a]pyrimidin-2-ylacetyl)amino]-1H-pyrazol-5-yl}cyclopentyl (2S)-butan-2-ylcarbamate], the Ki stood at 3.74 nM.

For the compound `CC[C@H](C)NC(=O)O[C@@H]1CC[C@H](c2cc(NC(=O)Cc3cn4ccc(C)nc4n3)n[nH]2)C1` [Example 357, (1R,3S)-3-(3-{[(7-methylimidazo[1,2-a]pyrimidin-2-yl)acetyl]amino}-1H-pyrazol-5-yl)cyclopentyl (2S)-butan-2-ylcarbamate], the Ki amounted to 4.08 nM.

Values taken from US11014911B2, “CDK2 inhibitors” (Pfizer Inc., priority 2019, dated 2021).
